The record followed here is the OPERA property sets (Mansouri et al. 2018).

Conditions in one data set: not given
In the case of `CC(C)(O)C#CC(C)(C)O`, the boiling point (usually the temperature at which the vapour pressure of the liquid equals the pressure above it) was determined as 205 °C and the melting point (in general, the temperature, or range, at which the solid turns liquid) was determined as 95 °C. For the compound `O=C1CC(=O)NC(=S)N1`, the log10 vapour pressure (mmHg) was -7.7.

As for `CCOC(=O)C(CC)C(C)=O` (stereo not given), the boiling point was determined as 198 °C.

As to `CCCS(=O)CCC`, the melting point came out at 22.5 °C.

On to `BrCC(Br)Br`, for which the boiling point turned out to be 189 °C and the melting point was -29.3 °C. In the same order, the values of `IC(I)I` are 218 °C and 119 °C. `CN(C)C(=O)Nc1ccc(SC(F)(F)Cl)c(Cl)c1` registered a melting point of 114 °C. The same measure, in the same setting: to `CCC(O)C(=O)O` (stereo not given) belongs 44.2 °C; to `COc1c(OC)c(OC(C)=O)c2ccccc2c1OC(C)=O`, 138 °C. With `CCOC(=O)c1ccccc1`, the boiling point is 212 °C, the log10 Koc (L/kg) worked out at 2.3, the log10 vapour pressure (mmHg) was -0.574 and the melting point is -34 °C. `OCCN1CCN(CCCN2c3ccccc3C=Cc3ccccc32)CC1` registered a melting point of 100 °C. As to `CCCSc1ccc2[nH]c(NC(=O)OC)nc2c1`, the melting point is 209 °C.

In turn, `CCOC(=O)CC(=O)c1ccc([N+](=O)[O-])cc1` registered a melting point of 72 °C. For `C=CC(=O)OCCCC`, the boiling point was 145 °C, the log10 vapour pressure (mmHg) turned out to be 0.737, the melting point was -64.6 °C and the ready biodegradability result is reported as “readily biodegradable”. In turn, `CCC(C(N)=O)n1nnc2ccccc21` (stereo not given) returned a melting point of 143 °C. In the case of `CC`, the boiling point was -88.6 °C, the log10 Koa amounted to 0.42, the log10 vapour pressure (mmHg) was 4.5 and the melting point was -183 °C. For the compound `FC(Cl)C(F)(F)C(F)(F)Cl` (stereo not given), the boiling point came out at 56.1 °C and the log10 vapour pressure (mmHg) came out at 2.46. `C=C(C)C(C)(C)C`: the boiling point was 77.9 °C, the log10 vapour pressure (mmHg) stood at 2.05 and the melting point is -110 °C.

For `CCCC(N)=O`, the boiling point came to 216 °C, the log10 vapour pressure (mmHg) is -2.41 and the melting point was found to be 115 °C. For the compound `Cc1cc(N)ncn1`, the melting point came out at 197 °C. On to `O=C1c2ccccc2C(=O)C1c1nc2ccccc2c(Br)c1O`, for which the ready biodegradability result was “not readily biodegradable”. Take `CC(=O)c1ccco1`: the boiling point amounted to 175 °C and the melting point turned out to be 33 °C. `CCCCCCCCCCc1ccccc1`: the boiling point was 298 °C, the log10 vapour pressure (mmHg) is -2.89 and the melting point was -14.4 °C.

`CC(C)C=CC(C)C` showed a log10 vapour pressure (mmHg) of 1.64.

In turn, `CC1CCCC(Br)C1` (stereo not given) returned a boiling point of 181 °C. In the case of `Clc1cc(Cl)c2oc3c(Cl)c(Cl)ccc3c2c1`, the log10 vapour pressure (mmHg) is -7.48 and the melting point worked out at 164 °C. `COC(=O)c1ccccc1S(=O)(=O)NC(=O)Nc1nc(OC(F)F)cc(OC(F)F)n1` had a log10 Koc (L/kg) of 1.08 and a melting point of 196 °C.

As to `O=C1c2ccccc2C(=O)c2c(O)cccc21`, the log10 vapour pressure (mmHg) is -6.68, the melting point stood at 194 °C and the ready biodegradability result is listed as “not readily biodegradable”. Take `CC(C)OC(=O)C1(S(=O)(=O)c2ccc(Cl)cc2)CC1`: the melting point was 89.8 °C. Same read-out and setting: to `CC(C)(C)N(CCO)CCO` belongs 42 °C. Consider `CCCSC`, for which the boiling point turned out to be 95.6 °C, the log10 vapour pressure (mmHg) was 1.71 and the melting point is -113 °C.

The compound `CC(O)C1CCCCC1` (stereo not given) came in with a boiling point of 189 °C. The compound `NS(=O)(=O)c1ccc(SCCCO)c(Cl)c1` displayed a melting point of 127 °C. Turning to `CCCCOC=O`, the boiling point worked out at 106 °C, the log10 vapour pressure (mmHg) is 1.46 and the melting point was -91.5 °C. With `CC1CCCC1(C)C` (stereo not given), the boiling point amounted to 114 °C and the melting point was -21.6 °C. In turn, `Cc1nc2n(c(=O)c1CCN1CCC(c3noc4cc(F)ccc34)CC1)CCCC2` yielded a melting point of 170 °C. Same read-out and setting: to `CCCCCCCCCCCCCCCCC(CCC)c1ccccc1` (stereo not given) belongs 31.4 °C.

As to `ON=C(C(=NO)c1ccco1)c1ccco1`, the melting point was found to be 167 °C. For the compound `CC=C(C)Cl`, the boiling point came to 64.5 °C and the melting point is -19 °C.

For the compound `Clc1ccc(OCOCC#CI)cc1`, the ready biodegradability result is given as “not readily biodegradable”. Turning to `CC(C)OC(=O)C(O)(c1ccc(Cl)cc1)c1ccc(Cl)cc1`, the log10 vapour pressure (mmHg) is -6.74 and the melting point came out at 73 °C.

The data set is the same for the next values; noted with them: fish.
In the case of `O=C1c2ccccc2C(=O)C1c1nc2ccccc2c(Br)c1O`, the log10 BCF amounted to 1.14.

Consider `CCCCCCCCCCc1ccccc1`, for which the log10 biotransformation half-life (days) was 0.63.

On to `O=C1c2ccccc2C(=O)c2c(O)cccc21`, for which the log10 BCF stood at 2.25.
